Experimental data: patent US12679878B2, “CRF2 receptor agonists and their use in therapy” (SANOFI, priority 2020, dated 2026)
Read-outs that look alike come from different tables or passages of the source. Starred links: 1 amine or outer side, 2 acyl side, 3 side chain; linkers in the order of their positions; H or OH if unused. Non-standard residues stand in square brackets, D forms with d. Residues, ends and D or L forms follow the SMILES beside them. Groups on a side chain read outwards from the residue. *: point of attachment. C18 diacid = O=C(O)CCCCCCCCCCCCCCCCC(=O)*; γGlu = O=C(O)[C@H](CCC(=O)[*:2])N[*:1]; Palmitoyl = CCCCCCCCCCCCCCCC(=O)*; AEEA = NCCOCCOCC(=O)O; Aib = CC(C)(N)C(=O)O

Tests used:
human CRF2α receptor = biological target: T1, human CRF2α receptor (Homo sapiens, UniProt Q13324); assay: cAMP agonism at human CRF2 α receptor in TeloHEAC cells (Example 7); type: cell-based; details: cAMP HTRF, TeloHEAC cells stably expressing human CRF2 α
T1 construct: expressed in transfected cells; host or cells: TeloHEAC
T1 sequence (Q13324 1-411): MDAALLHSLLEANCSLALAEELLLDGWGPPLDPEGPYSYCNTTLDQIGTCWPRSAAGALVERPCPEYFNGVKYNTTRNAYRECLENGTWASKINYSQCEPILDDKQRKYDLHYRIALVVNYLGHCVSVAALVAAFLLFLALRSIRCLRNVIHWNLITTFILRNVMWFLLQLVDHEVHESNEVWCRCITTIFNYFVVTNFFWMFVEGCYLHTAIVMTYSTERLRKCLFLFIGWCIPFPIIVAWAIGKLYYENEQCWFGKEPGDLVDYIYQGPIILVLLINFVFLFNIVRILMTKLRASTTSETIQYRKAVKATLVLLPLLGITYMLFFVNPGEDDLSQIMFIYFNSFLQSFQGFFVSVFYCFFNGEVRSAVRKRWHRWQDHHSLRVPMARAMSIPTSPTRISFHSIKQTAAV
In short: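 Percent activation was referenced to 1000 nM UCN2 (100%), and EC50 values taken as concentrations giving half of maximal response. The read-out was a homogeneous time-resolved fluorescence cAMP kit, fluorescence ratio 665/620 nm. Thawed cells (2000/well) saw compound for 30 min at RT in buffer with 2 mM IBMX and 0%/0.1% HSA.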

rat CRF2R α receptor = assay: cAMP agonism at rat CRF2R α receptor in A7R5 rat aortic smooth muscle cells (Example 8); type: cell-based; details: cAMP HTRF, A7R5 rat aortic smooth muscle cell line, 0% HSA
Description: Cells were grown in a T175 culture flask placed at 37° C. to near confluence in medium (DMEM/10% FBS) and collected in 2 ml vials in cell culture medium containing 10% DMSO in a concentration of 10-50 million cells/ml. Each vial contained 1.8 ml cells. The vials were slowly frozen to −80° C. in isopropanol and then transferred in liquid nitrogen for storage. Prior to use, frozen cells were thawed quickly at 37° C. and washed (5 min at 900 rpm) with 20 ml cell buffer (1×HBSS; 20 mM HEPES; 0% or 0.1% HSA). Cells were resuspended in assay buffer (cell buffer plus 2 mM IBMX) and adjusted to a cell density of 1 million cells/ml. For measurement, 5 μl cells (final […]) and 5 μL of test compound were added to a 384-well plate, followed by incubation for 30 minutes at room temperature.
The CAMP content of cells was determined using a kit from Cisbio Corp. (cat. no. 62AM4PEC) based on HTRF (Homogenous Time Resolved Fluorescence). After addition of HTRF reagents diluted in lysis buffer (kit components), the plates were incubated for 1 h, followed by measurement of the fluorescence ratio at 665/620 nm. The percent activity value (E %) was calculated by setting 1000 nM of urocortin 2 (UCN2) as 100%. The in vitro potency of the compounds was quantified by determining the concentrations that caused 50% activation of maximal response (EC50).
Using the procedure described in Example 7, the activity of the compounds at the rat CRF2R α receptor was assessed. The A7R5 rat aortic smooth muscle cell line was used in this study.

[1] = 0% HSA, read-out: EC50 [nM], 0% HSA

EC50 (human CRF2α receptor; [1]) [nM] | EC50 (rat CRF2R α receptor) [nM] | EC50 (human CRF2α receptor; 0.1% HSA, read-out: EC50 [nM], 0.1% HSA) [nM] | Compound
3.77 | 47.3 | – | CC[C@H](C)[C@H](N)C(=O)N[C@H](C(=O)N[C@@H](CC(C)C)C(=O)N[C@@H](CO)C(=O)N[C@@H](CC(C)C)C(=O)N[C@@H](CC(=O)O)C(=O)N[C@H](C(=O)N1CCC[C@H]1C(=O)N[C@H](C(=O)N[C@@H](CCCCN)C(=O)N[C@@H](CC(C)C)C(=O)N[C@@H](CCCCNC(=O)COCCOCCNC(=O)COCCOCCNC(=O)CC[C@H](NC(=O)CCCCCCCCCCCCCCCCC(=O)O)C(=O)O)C(=O)N[C@@H](CCC(N)=O)C(=O)N[C@H](C(=O)N[C@@H](CC(C)C)C(=O)N[C@@H](CC(C)C)C(=O)N[C@@H](CCC(=O)O)C(=O)N[C@@H](CCC(N)=O)C(=O)N[C@@H](C)C(=O)N[C@@H](CCCCN)C(=O)N[C@@H](CCC(N)=O)C(=O)N[C@@H](CCCCN)C(=O)NC(C)(C)C(=O)N[C@@H](CC(C)C)C(=O)N[C@@H](CCCCN)C(=O)N[C@@H](C)C(=O)N[C@@H](CCC(N)=O)C(=O)N[C@@H](C)C(=O)N[C@@H](CCC(=O)O)C(=O)N[C@H](C(=O)N[C@@H](CC(N)=O)C(=O)N[C@H](C(=O)N[C@@H](CCCNC(=N)N)C(=O)N[C@H](C(=O)N[C@@H](CC(C)C)C(=O)N[C@@H](CCC(=O)O)C(=O)N[C@@H](CCCNC(=N)N)C(=O)N[C@H](C(N)=O)C(C)C)[C@@H](C)CC)C(C)C)[C@@H](C)O)[C@@H](C)CC)[C@@H](C)CC)C(C)C)C(C)C [compound 45] (H-IVLSLDVPIKLK([AEEA-AEEA-γGlu-C18 diacid])QILLEQAKQK[Aib]LKAQAETNVRILERV-NH2)
0.12 | 1.14 | 2.53 | CC[C@H](C)[C@H](NC(C)=O)C(=O)N[C@H](C(=O)N[C@@H](CC(C)C)C(=O)N[C@@H](CO)C(=O)N[C@@H](CC(C)C)C(=O)N[C@@H](CC(=O)O)C(=O)N[C@@H](C(=O)N1CCC[C@H]1C(=O)N[C@H](C(=O)N[C@@H](CCCCN)C(=O)N[C@@H](CC(C)C)C(=O)N[C@@H](CCCCNC(=O)COCCOCCNC(=O)COCCOCCNC(=O)CC[C@H](NC(=O)CCCCCCCCCCCCCCCCC(=O)O)C(=O)O)C(=O)N[C@@H](CCC(N)=O)C(=O)N[C@H](C(=O)N[C@@H](CC(C)C)C(=O)N[C@@H](CC(C)C)C(=O)N[C@@H](CCC(=O)O)C(=O)N[C@@H](CCC(N)=O)C(=O)N[C@@H](C)C(=O)N[C@@H](CCCNC(=N)N)C(=O)N[C@@H](CCC(N)=O)C(=O)N[C@@H](CCCCN)C(=O)NC(C)(C)C(=O)N[C@@H](CCC(N)=O)C(=O)N[C@@H](CCCNC(=N)N)C(=O)N[C@@H](CCC(=O)O)C(=O)N[C@@H](CCC(N)=O)C(=O)N[C@@H](C)C(=O)N[C@@H](CCC(=O)O)C(=O)N[C@@H](CCCCN)C(=O)N[C@@H](CC(N)=O)C(=O)N[C@@H](CCCCN)C(=O)N[C@@H](CCC(N)=O)C(=O)N[C@H](C(=O)N[C@@H](CC(C)C)C(=O)N[C@@H](CCC(=O)O)C(=O)N[C@@H](CCC(N)=O)C(=O)N[C@H](C(N)=O)C(C)C)[C@@H](C)CC)[C@@H](C)CC)[C@@H](C)CC)C(C)C)C(C)C [compound 157] (Ac-IVLSLD[dV]PIKLK([AEEA-AEEA-γGlu-C18 diacid])QILLEQARQK[Aib]QREQAEKNKQILEQV-NH2)
– | 48.6 | – | CC[C@H](C)[C@H](NC(C)=O)C(=O)N[C@H](C(=O)N[C@@H](CC(C)C)C(=O)N[C@@H](CO)C(=O)N[C@@H](CC(C)C)C(=O)N[C@@H](CC(=O)O)C(=O)N[C@@H](C(=O)N1CCC[C@H]1C(=O)N[C@H](C(=O)N[C@@H](CCC(=O)O)C(=O)N[C@@H](CC(C)C)C(=O)N[C@@H](CCCCNC(=O)COCCOCCNC(=O)COCCOCCNC(=O)CC[C@H](NC(=O)CCCCCCCCCCCCCCCCC(=O)O)C(=O)O)C(=O)N[C@@H](CCC(N)=O)C(=O)N[C@H](C(=O)N[C@@H](CC(C)C)C(=O)N[C@@H](CC(C)C)C(=O)N[C@@H](CCC(=O)O)C(=O)N[C@@H](CCC(N)=O)C(=O)N[C@@H](CCC(=O)O)C(=O)N[C@@H](CCCNC(=N)N)C(=O)N[C@@H](CCC(N)=O)C(=O)N[C@@H](CCCCN)C(=O)NC(C)(C)C(=O)N[C@@H](CCC(N)=O)C(=O)N[C@@H](CCCNC(=N)N)C(=O)N[C@@H](CCC(=O)O)C(=O)N[C@@H](CCC(N)=O)C(=O)N[C@@H](C)C(=O)N[C@@H](CCC(=O)O)C(=O)N[C@@H](CCCCN)C(=O)N[C@@H](CC(N)=O)C(=O)N[C@@H](CCCCN)C(=O)N[C@@H](CCC(N)=O)C(=O)N[C@H](C(=O)N[C@@H](CC(C)C)C(=O)N[C@@H](CCC(=O)O)C(=O)N[C@@H](CCC(N)=O)C(=O)N[C@H](C(N)=O)C(C)C)[C@@H](C)CC)[C@@H](C)CC)[C@@H](C)CC)C(C)C)C(C)C [compound 162] (Ac-IVLSLD[dV]PIELK([AEEA-AEEA-γGlu-C18 diacid])QILLEQERQK[Aib]QREQAEKNKQILEQV-NH2)
– | 1.5 | – | CC[C@H](C)[C@H](N)C(=O)N[C@H](C(=O)N[C@@H](CC(C)C)C(=O)N[C@@H](CO)C(=O)N[C@@H](CC(C)C)C(=O)N[C@@H](CC(=O)O)C(=O)N[C@@H](C(=O)N1CCC[C@H]1C(=O)N[C@H](C(=O)N[C@@H](Cc1c[nH]cn1)C(=O)N[C@@H](CC(C)C)C(=O)N[C@@H](CCCCNC(=O)COCCOCCNC(=O)COCCOCCNC(=O)CC[C@H](NC(=O)CCCCCCCCCCCCCCCCC(=O)O)C(=O)O)C(=O)N[C@@H](CCC(N)=O)C(=O)N[C@H](C(=O)N[C@@H](CC(C)C)C(=O)N[C@@H](CC(C)C)C(=O)N[C@@H](CCC(=O)O)C(=O)N[C@@H](CCC(N)=O)C(=O)N[C@@H](CCC(=O)O)C(=O)N[C@@H](CCCNC(=N)N)C(=O)N[C@@H](CCC(N)=O)C(=O)N[C@@H](CCCCN)C(=O)NC(C)(C)C(=O)N[C@@H](CCC(N)=O)C(=O)N[C@@H](CCCNC(=N)N)C(=O)N[C@@H](CCC(=O)O)C(=O)N[C@@H](CCC(N)=O)C(=O)N[C@@H](C)C(=O)N[C@@H](CCC(=O)O)C(=O)N[C@@H](CCCCN)C(=O)N[C@@H](CC(N)=O)C(=O)N[C@@H](CCCCN)C(=O)N[C@@H](CCC(N)=O)C(=O)N[C@H](C(=O)N[C@@H](CC(C)C)C(=O)N[C@@H](CCC(=O)O)C(=O)N[C@@H](CCC(N)=O)C(=O)N[C@H](C(N)=O)C(C)C)[C@@H](C)CC)[C@@H](C)CC)[C@@H](C)CC)C(C)C)C(C)C [compound 163] (H-IVLSLD[dV]PIHLK([AEEA-AEEA-γGlu-C18 diacid])QILLEQERQK[Aib]QREQAEKNKQILEQV-NH2; N-terminus assumed)
– | 0.61 | – | CCCCCCCCCCCCCCCC(=O)N[C@@H](CCC(=O)NCCCC[C@H](NC(=O)[C@H](CC(C)C)NC(=O)[C@H](CCCCN)NC(=O)[C@@H](NC(=O)[C@@H]1CCCN1C(=O)[C@H](NC(=O)[C@H](CC(=O)O)NC(=O)[C@H](CC(C)C)NC(=O)[C@H](CO)NC(=O)[C@H](CC(C)C)NC(=O)[C@@H](NC(=O)[C@@H](N)[C@@H](C)CC)C(C)C)C(C)C)[C@@H](C)CC)C(=O)N[C@@H](CCC(N)=O)C(=O)N[C@@H](CCCCN)C(=O)N[C@@H](CC(C)C)C(=O)N[C@@H](CC(C)C)C(=O)N[C@@H](CCCCN)C(=O)N[C@@H](CCC(N)=O)C(=O)N[C@@H](CCC(N)=O)C(=O)N[C@@H](CCCNC(=N)N)C(=O)N[C@@H](CCC(N)=O)C(=O)N[C@@H](CCCNC(=N)N)C(=O)N[C@@H](CCCCN)C(=O)N[C@@H](CCC(=O)O)C(=O)N[C@@H](CCCNC(=N)N)C(=O)N[C@@H](CCC(N)=O)C(=O)N[C@@H](CCC(N)=O)C(=O)N[C@@H](C)C(=O)N[C@@H](CCC(=O)O)C(=O)N[C@@H](CCCCN)C(=O)N[C@@H](CC(N)=O)C(=O)N[C@@H](CCCCN)C(=O)N[C@@H](CCCNC(=N)N)C(=O)N[C@H](C(=O)N[C@@H](CC(C)C)C(=O)N[C@@H](CCC(=O)O)C(=O)N[C@@H](CCCNC(=N)N)C(=O)N[C@H](C(N)=O)C(C)C)[C@@H](C)CC)C(=O)O [compound 227] (H-IVLSLD[dV]PIKLK([γGlu-Palmitoyl])QKLLKQQRQRKERQQAEKNKRILERV-NH2)
